Reference: ChEMBL document CHEMBL1201862, “PubChem BioAssay data set” (2004)
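Interpolation was linear, between the two tested concentrations surrounding the appropriate level; five concentrations were tested over 48 hours in 96-well plates. At the GI50, growth is halved.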 Active and inactive are the calls of the source. Cut-off read from the data, not from the text of the source: active = GI50 up to about 1.1 µM and inactive = higher.

How the values were obtained:
Assay in all cases: growth of human tumour cells (NCI), 48 h
A549 = tested on: A549
BT-549 = tested on: BT-549
EKVX = tested on: EKVX
HCC 2998 = tested on: HCC 2998
HCT-15 = tested on: HCT-15
HL-60 = tested on: HL-60
HOP-92 = tested on: HOP-92
IGROV-1 = tested on: IGROV-1
K562 = tested on: K562
LOX IMVI = tested on: LOX IMVI
MCF7 = tested on: MCF7
NCI-H522 = tested on: NCI-H522
OVCAR-4 = tested on: OVCAR-4
RPMI-8226 = tested on: RPMI-8226
RXF 393 = tested on: RXF 393
SF-268 = tested on: SF-268
SK-MEL-5 = tested on: SK-MEL-5
SK-OV-3 = tested on: SK-OV-3
SR = tested on: SR
SW-620 = tested on: SW-620

| SMILES | GI50 (A549) | GI50 (BT-549) | GI50 (EKVX) | GI50 (HCC 2998) | GI50 (HCT-15) [nM] | GI50 (HL-60) | GI50 (HOP-92) | GI50 (IGROV-1) | GI50 (K562) | GI50 (LOX IMVI) | GI50 (MCF7) | GI50 (NCI-H522) | GI50 (OVCAR-4) | GI50 (RPMI-8226) | GI50 (RXF 393) | GI50 (SF-268) | GI50 (SK-MEL-5) | GI50 (SK-OV-3) | GI50 (SR) | GI50 (SW-620) |
| --- | --- | --- | --- | --- | --- | --- | --- | --- | --- | --- | --- | --- | --- | --- | --- | --- | --- | --- | --- | --- |
| C/C(=N\NC(=S)N(C)C)c1nc2cccnc2[nH]1 | 792 nM (active) | 39.8 nM (active) | 475 nM (active) | 710 nM (active) | 443 | 323 nM (active) | 275 nM (active) | 804 nM (active) | 2160 nM (inactive) | 673 nM (active) | 1050 nM (active) | 1530 nM (inactive) | 499 nM (active) | 2070 nM (inactive) | 596 nM (active) | 590 nM (active) | 387 nM (active) | 413 nM (active) | 679 nM (active) | 883 nM (active) |
| COc1cccc2c1C(=O)c1c(O)c3c(c(O)c1C2=O)C[C@@](O)(C(=O)CO)C[C@@H]3OC1CC(N2CCOCC2C#N)C(O)C(C)O1 (stereo not given in full) | 0.0426 nM (active) | 0.0539 nM (active) | 0.227 nM (active) | 0.0537 nM (active) | 0.0451 | 0.0202 nM (active) | 0.0953 nM (active) | 0.0857 nM (active) | 0.0252 nM (active) | 2.5 nM (active) | 2.5 nM (active) | 0.0305 nM (active) | 0.0218 nM (active) | 0.0301 nM (active) | 0.0191 nM (active) | 0.0382 nM (active) | 0.0372 nM (active) | 0.124 nM (active) | 0.0127 nM (active) | 0.0723 nM (active) |
| CN(/N=C(\C(=O)O)c1ccccc1)C1=NCCCN1 | > 100000 nM (inactive) | > 100000 nM (inactive) | 73300 nM (inactive) | > 100000 nM (inactive) | > 100000 | > 100000 nM (inactive) | 80900 nM (inactive) | > 100000 nM (inactive) | > 100000 nM (inactive) | > 100000 nM (inactive) | > 100000 nM (inactive) | > 100000 nM (inactive) | > 100000 nM (inactive) | > 100000 nM (inactive) | > 100000 nM (inactive) | > 100000 nM (inactive) | > 100000 nM (inactive) | > 100000 nM (inactive) | > 100000 nM (inactive) | > 100000 nM (inactive) |
